Test results as given in patent US11485891B2, “Products and methods for the treatment of mixtures of water and hydrophobic liquids” (B.C. RESEARCH INC., priority 2018, dated 2022).

Legend:
[1] = Gelling activity using mixed organic solvent-water active suspension; settings: 25 mg in 5 mL 2:3 1,4-butanediol and water, heated and cooled; added to 1:4 oil and seawater, gentle agitation
Method: The gellant oleic-p-alaninamide (25 mg) was suspended in 5 mL of a mixed solvent system composed of 2:3 1,4-butanediol and water. The mixture was heated to dissolve the solids. Upon cooling, the gellant precipitates as a cotton-like mass.

[2] = Gelling activity without organic solvent (active suspension in water); settings: 25 mg in 5 mL water, heated and cooled; no organic solvent
Method: The gellant oleic-β-alaninamide (25 mg) was suspended 5 mL of water which was dyed pink for visualization purposes. The mixture was heated to dissolve the gellant. Upon cooling, the gellant precipitated as a cotton-like mass which retains the water. […] Upon the addition of diesel, which has been dyed blue, the hydrophobic phase entered the gellant mass upon contact and displaced the dyed water (FIGS. 8B and 8C) to produce the gelled diesel.

[3] = Method: The herder L-phenylalanine, N-(1-oxotetradecyl)-, sodium salt and the gellant oleic-β-alaninamide were assessed for biodegradability in using OECD 301F guideline, manometric respirometer test.
[4] = Herder activity: slick thickness of oil added to water pre-dosed with herder
Method: The herder formulation was pre-dosed into 1 L of water in a flat glass pan under which was a 1×1 cm grid. A known volume of oil was applied to the pre-dosed water. A digital photo of the oil slick was recorded. The image was processed using ImageJ in order to calculate the area of the slick. Since volume and area are known, it is possible to calculate the thickness of the slick as a function of herder dosing. Compounds that maximize the thickness of the slick are considered better oil-herders.
Stearoyl alanine was dissolved in isopropyl alcohol. An aliquot of this solution was added to 1 L of water in a pan. The final dosage of stearoyl alanine was 0.77 mg in 1 L of water. Dilbit (2.27 g) was added. An overhead digital photo was taken of the oil after 10 minutes. The photo was analyzed to determine the area of the oil which could be used to calculate the thickness of the oil layer. The oil slick was determined to be 2.9 mm thick.
Silsurf, (trademark) a commercial herder added to 1 L of water in a glass pan for a final dosing of 1 mg. Dilbit (1.61 g) was added to the water. An overhead digital photo was taken of the oil after 10 minutes. The photo was analyzed to determine the area of the oil which could be used to calculate the thickness of the oil layer. The oil slick was determined to be 2.0 mm thick.

[5] = Gelling ability, solution phase (co-solvent) delivery to dilbit-water mixture
Method: PSOGs were screened against dilbit, diesel and sunflower. The dilbit used in the Examples herein was prepared by dissolving bitumen in naphtha in a 65:35 ratio of bitumen to naphtha. A typical screening method utilized a 1:4 ratio of hydrophobic liquid to water (i.e., 1 mL oil product to 4 mL water) in a 20 mL vial. The gellant (22.5 mg) was dissolved in a carrier solvent, which was typically methanol, ethanol or isopropanol. Heat was applied to dissolve the solid if necessary. The gellant solution was transferred to the oil-water mixture and the vial was capped. Agitation was applied and the mixture allowed to settle. Gel formation typically presented as the formation of an oil pellet or a thickening of the oil phase.
Four portions of the prior art compound dodecanoyl-L-alanine of differing masses were weighed out and each dissolved in 1 mL of isopropyl alcohol. These four solutions were added to four separate 20 mL vials of 1:4 mL dilbit and water. […] Gel formation was evaluated qualitatively.
This procedure was repeated with dodecanoyl-β-alaninamide. Four portions of dodecanoyl-β-alaninamide of differing masses were weighed out and each dissolved in 1 mL of isopropyl alcohol. These four solutions were added to four separate 20 mL vials containing 1 mL dilbit and 4 mL water. […] Gel formation was evaluated qualitatively.

[6] = Oil thickening, aqueous suspension delivery to dilbit-water mixture
Method: Gellants which presented as fine powdery solids were suspended in water (4-5 mL). The suspension was sonicated to reduce the particle size if necessary. The suspension was added to a mixture of 1 mL oil to 4 mL water in a 20 mL vial. The vial was capped and the mixture agitated. Thickening of the oil, likely due to the formation of an emulsion, could be observed within 15 minutes.
Four portions of prior art compound dodecanoyl-L-alanine of differing masses were weighed out and each suspended in 1 mL of water. These four suspensions were added to four separate 20 mL vials of 1:4 mL dilbit and water. […] Oil thickening was evaluated qualitatively.
This experiment was repeated with dodecanoyl-β-alaninamide. Four portions of dodecanoyl-β-alaninamide of differing masses were weighed out and each suspended in 7 mL of water. These four suspensions were added to four separate 20 mL vials of 1:4 mL dilbit and water. […] Oil thickening was evaluated qualitatively.

[7] = Bhattacharya et al., Chemical Communications p. 185, 2001; cited from earlier work
[8] = Herding (slick retraction) of oil already spread on water; settings: aqueous solution of herder applied to spread oil; images at 1, 5, 10 and 20 minutes
Source text: When an oil (e.g., dilbit) is applied to water in a pan, the oil spreads to cover the surface of the water. Application of FA-AA as a salt (e.g., Li, Na or K salts) dissolved in water results in contraction of the oil layer. The pooled oil has reduced surface area and greater slick thickness. This is illustrated in FIG. 9A-E where a solution of the salt of a FA-AA is applied to an aliquot of oil which has been allowed to spread in a pan (FIG. 9A). Application of the aqueous herder solution results in contraction of the slick over time. Images taken at 1, 5, 10 and 20 minutes are shown in FIGS. 9B, 9C, 9D and 9E respectively.
Alternatively, an oil was applied to water in a pan and allowed to spread. A herder (e.g. L-phenylalanine, N-(1-oxotetradecyl)-, sodium salt) was applied to the water to retract the slick (i.e. decrease surface area while increasing the thickness/depth of the oil layer). Overhead photography was used to capture the herding process. The images were processed to determine the area of the slick and allow for calculation of the slick thickness (FIG. 9).

[9] = Reduction of oil adhesion on glass beads conditioned with aqueous herder solution; settings: beads conditioned 1 hour, in oil 1 hour
Method: Glass bead were used as a model substrate. The beads were weighed and transferred into a pre-weighed 60 mL plastic syringe. The beads were immersed in an aqueous solution of herder, C14-L-Phe-COONa, for 1 hour. An oil layer of conventional crude oil was added to the surface of the herder solution above the glass beads. The oil was lowered hydrostatically to immerse the beads in oil for 1 hour after which the oil was raised hydrostatically above the level of the beads. The water above the oil and beads were both removed. The mass of the oil retained on the glass beads was calculated as the difference between the mass of the oil-coated beads and the initial mass of the beads.

## CCCCCCCC/C=C\CCCCCCCC(=O)NCCC(N)=O [oleic-β-alaninamide]
[1]
  Time to gelling of the oil phase: less than 1 minute
[2]
  Gelling of dyed diesel (FIG. 8): gelled diesel
[3]
  Biodegradability classification: inherently biodegradable

## CCCCCCCCCCCCCC(=O)N[C@@H](C)C(=O)[O-].[Na+] [sodium tetradecanoylalaninate]
[4]; FA-AA salt pre-dosed into water
  Behaviour of oil added to a pan of water pre-dosed with herder (FIG. 2): contraction of the oil slick

## oleic alaninamide
[5]; dilbit and water
  State of dilbit after PSOG delivered as solution in a water-miscible solvent (FIG. 3): gel pellet
[6]; dilbit and water
  State of dilbit after PSOG suspended in water (FIG. 3): thickened state

## CCCCCCCCCCCC(=O)N[C@@H](C)C(=O)O [dodecanoyl-L-alanine, reference compound]
[5]; gellant in 1 mL isopropyl alcohol, 1 mL dilbit and 4 mL water, tested at 2.5, 1.25, 0.83 and 0.63% w/v relative to dilbit
  Dosing ratio at which a gel formed (qualitative evaluation): 2.5 % w/v
[6]; solid suspended in water, 1:4 mL dilbit and water, tested at 2.5, 1.25, 0.83 and 0.63% w/v relative to dilbit
  Dosing level at which the oil thickened (qualitative evaluation): did not thicken the oil at any of the dosing levels tested
[7]
  Gelling ability: gel various hydrophobic organic liquids including petrol

## CCCCCCCCCCCCCC(=O)N[C@@H](Cc1ccccc1)C(=O)[O-].[Na+] [L-phenylalanine, N-(1-oxotetradecyl)-, sodium salt]
[8]
  Herding of dilbit (FIG. 9): slick retraction
[3]
  Biodegradability classification: readily biodegradable
[9]; herder concentration 0.086 g/L
  Average mass of conventional crude retained: 1.9 g
[9]; herder concentration 0.57 g/L
  Average mass of conventional crude retained: 1.3 g
[9]; herder concentration 2.9 g/L
  Average mass of conventional crude retained: 1.6 g
[9]; herder concentration 10 g/L
  Average mass of conventional crude retained: 1.8 g

## CCCCCCCCCCCCCCCCCC(=O)N[C@@H](C)C(=O)O [Stearoyl alanine]
[4]; 0.77 mg in 1 L of water (from isopropyl alcohol solution), dilbit 2.27 g, photo after 10 minutes
  Oil slick thickness: 2.9 mm
